“Also recorded” adds a separate entry of the source.
Experiments:
BRD4 [1] = target: T1, BRD4 (Homo sapiens, UniProt O60885); test: Summary of BRD4 degradation by CURE-PRO pairs, estimated from Western Blot or WES; type: cell-based; design: endogenous in cells; conditions: for Degradation of BRD4, combination with CRBN ligand 8048: Table 4, aromatic 1,2-diol BRD4 ligand + 8048; for Degradation of BRD4, combination with CRBN ligand 8047: Table 1, aryl-boronic acid BRD4 ligand + 8047; for Degradation of BRD4, combination with CRBN ligand 8066: Table 1, aryl-boronic acid BRD4 ligand + 8066
Description: (§1) Namalwa, Ramosm HeLa, MCF7, or HT29 HCT116 cells (2.5-3×10^6) were treated for 24 hours with the indicated compounds solubilized in DMSO. The cells were washed in ice-cold PBS and were then lysed in RIPA lysis buffer (150 mM NaCl, 5 mM EDTA, 1% NP-40, 0.5% sodium deoxycholate, 0.1% SDS, 50 mM Tris, pH 8.0.) with Roche protease inhibitor complete cocktail and phosphatase inhibitors (10 mM sodium fluoride, 10 mM sodium pyrophosphate, 1 mM sodium orthovanadate and 20 mM β-glycerophosphate). The total protein concentrations were determined by Bradford Protein Assay (Pierce) and 10-20 μg of protein was loaded onto 4-15% Tris-Glycine gradient gels (Biorad). After standard gel electrophoresis, the separated proteins were transferred to PVDF membrane by wet transfer. The immunoblots were then blocked for 1 hour in 5% skim milk in TBST or 5% BSA in TBST, according to manufacturer's instructions, before an overnight incubation at 4° C. with indicated antibodies and membranes. Membranes were then incubated with the appropriate horseradish peroxidase-conjugated secondary antibodies (1:5,000 dilution) for 1 h at room temperature and the bands were visualized using the Clarity Max Western ECL Substrate (Biorad) and the ChemiDoc Imaging System (Biorad). Signal was detected with ECL Western Blotting Substrate (Pierce) and X-ray film processed with a Konica SRX-101 X-ray film processor or captured by Bio-Rad's Chemidoc Imaging system.
WES Simple analysis was performed on WES system (ProteinSimple-Biotechne) according to the manufacturer's instructions. Total protein concentrations of cell lysates were determined by the Pierce BCA kit (Thermo Fisher). 3 μL of 0.3 μg/μL of the protein lysate was loaded onto a 12- to 230-kDa WES assay plate (ProteinSimple) where 300 nL sample was withdrawn through a capillary, subjected to electrophoretic separation of proteins by size, and followed by the simultaneous, HRP-based detection of proteins using the Anti-Rabbit Detection Module (Proteinsimple: #DM-001). The electropherograms were checked then the automatic peak detection was manually corrected if it was required.
A black check mark indicates efficacy of 30% to 70% or higher protein degradation.

BRD4 [2] = target: T1, BRD4; test: CURE-PRO-mediated BRD4 degradation in HeLa cells, Western blot; type: cell-based; design: endogenous in cells; host or cells: HeLa; conditions: 24 h
Description: All cell lines were purchased from ATCC or DSMZ and grown at 37° C. with 5% CO2. Human HeLa cells were cultured in complete growth medium (Dulbecco's modified Eagle's medium (DMEM) supplemented with 10% FBS); MCF7 cells were cultured in complete growth medium (Dulbecco's modified Eagle's medium (DMEM) supplemented with 10% FBS and 0.01 mg/ml human recombinant insulin (Sigma Aldrich); Namalwa and Ramos cells were cultured in complete growth medium (RPMI 1640 medium supplemented with 10% FBS); HCT116 and HT29 cells were cultured in complete growth medium (McCoy's 5a Medium supplemented with 10% FBS). For cellular degradation of BRD4 studies cells were seeded in a 12-well plate at 70-80% confluency, allowed to attach overnight, and incubated with the indicated compounds for the indicated time. When indicated, a 15-minute pretreatment with 10 μM pomalidomide, 10 μM VHL298, 10 μM Nutlin3a, 1 μM MG-132 or 1 μM Carfilzomib was performed before the addition of CURE-PROs. For washout studies, after CURE-PRO treatment, media was aspirated and incubated with complete medium for the indicated time before lysis.
as §1
HeLa cells (2.5×10^6) were treated for 24 hours with the sample compounds solubilized in DMSO. Compounds were added at 1-10 μM each. Standardized protein samples were electrophoresed and imaged as described in the immunoblotting description above. FIGS. 6-18 depicts the CURE-PRO-mediated BRD4 degradation for BRD monomers (JQ1 derivatives comprising of catechol linkers), and CRBN ligands, 8048 and 8049 (pomalidomide derivatives comprising boronic acid linkers) combined in a 1:1 ratio.
HeLa cells (2.5×10^6) were treated for 24 hours with the compounds solubilized in DMSO. The compounds were added at 10 μM each. Standardized protein samples were electrophoresed and imaged as described in the immunoblotting section above. FIGS. 23-27 depicts the CURE-PRO-mediated BRD4 degradation for BRD monomers (JQ1 derivatives comprising of boronic acid linkers), and CRBN ligands, 8046, 8047 and 8066 (pomalidomide derivatives comprising diol linkers) combined in a 1:1 ratio.
HeLa cells (2.5×10^6) were treated for 24 hours with the compounds solubilized in DMSO. Compounds were added at 10 μM and 100 μM each. Standardized protein samples were electrophoresed and imaged as described in the immunoblotting section above.
HeLa cells (2.5×10^6) were treated for 24 hours with the compounds solubilized in DMSO. Compounds were added at 1 nM-1 μM each. […]

[3] = BRD4 monomer alone, HeLa, 1-10 μM
[4] = co-treated 1:1 with CRBN ligand 8048, HeLa, 1-10 μM each
[5] = co-treated 1:1 with CRBN ligand 8049, HeLa, 1-10 μM each

SMILES | Degradation of BRD4, combination with CRBN ligand 8048 (BRD4 [1]) | BRD4 degradation (BRD4 [2]; [3]) | BRD4 degradation (BRD4 [2]; [4]) | BRD4 degradation (BRD4 [2]; [5]) | further results
CCNC(=O)C[C@@H]1N=C(c2ccc(Cl)cc2)c2cc(-c3ccc4cc(O)c(O)cc4c3)ccc2-n2c(C)nnc21 [BRD-N67] | √ (A black check mark indicates efficacy of 30% to 70% or higher protein degradation) | there is no degradation of BRD4 | causes degradation of BRD4 | causes degradation of BRD4 | Degradation of BRD4, combination with CRBN ligand 8049 (BRD4 [1]; Table 4, aromatic 1,2-diol BRD4 ligand + 8049): √ (A black check mark indicates efficacy of 30% to 70% or higher protein degradation)
CCNC(=O)C[C@@H]1N=C(c2ccc(Cl)cc2)c2cc(OCCOCCNC(=O)c3ccc(O)c(O)c3)ccc2-n2c(C)nnc21 [BRD-N38, N-(2-(2-(((4S)-6-(4-chlorophenyl)-4-(2-(ethylamino)-2-oxoethyl)-1-methyl-4H-benzo[f][1,2,4]triazolo[4,3-a][1,4]diazepin-8-yl)oxy)ethoxy)ethyl)-3,4-dihydroxybenzamide] | √ (A black check mark indicates efficacy of 30% to 70% or higher protein degradation) | there is no degradation of BRD4 | causes degradation of BRD4 | – | –
CCNC(=O)C[C@@H]1N=C(c2ccc(Cl)cc2)c2cc(OCCCCC(=O)Nc3ccc(O)c(O)c3)ccc2-n2c(C)nnc21 [BRD-N22, 5-(((4S)-6-(4-chlorophenyl)-4-(2-(ethylamino)-2-oxoethyl)-1-methyl-4H-benzo[f][1,2,4]triazolo[4,3-a][1,4]diazepin-8-yl)oxy)-N-(3,4-dihydroxyphenyl)pentanamide] | √ (A black check mark indicates efficacy of 30% to 70% or higher protein degradation) | there is no degradation of BRD4 | causes degradation of BRD4; also recorded: Degradation is noted | no evidence of BRD4 degradation | –
CCNC(=O)C[C@@H]1N=C(c2ccc(Cl)cc2)c2cc(OCCOCCOCCOCCOCCOCCNC(=O)c3ccc(O)c(O)c3)ccc2-n2c(C)nnc21 [BRD-N70, N-(17-(((4S)-6-(4-chlorophenyl)-4-(2-(ethylamino)-2-oxoethyl)-1-methyl-4H-benzo[f][1,2,4]triazolo[4,3-a][1,4]diazepin-8-yl)oxy)-3,6,9,12,15-pentaoxaheptadecyl)-3,4-dihydroxybenzamide] | √ (A black check mark indicates efficacy of 30% to 70% or higher protein degradation) | – | causes degradation of BRD4; also recorded: Degradation is noted | no evidence of BRD4 degradation | –
CCNC(=O)C[C@@H]1N=C(c2ccc(Cl)cc2)c2cc(OCCOCCNC(=O)c3ccc(B(O)O)cc3)ccc2-n2c(C)nnc21 [BRD- E39] | – | – | – | – | Degradation of BRD4, combination with CRBN ligand 8046 (BRD4 [1]; Table 1, aryl-boronic acid BRD4 ligand + 8046): √ (A black check mark indicates efficacy of 30% to 70% or higher protein degradation)
COc1ccc2c(c1)C(c1ccc(Cl)cc1)=N[C@@H](CC(=O)NCCNC(=O)Cc1ccc(B(O)O)cc1)c1nnc(C)n1-2 [BRD-E27, (4-(2-((2-(2-((4S)-6-(4-chlorophenyl)-8-methoxy-1-methyl-4H-benzo[f][1,2,4]triazolo[4,3-a][1,4]diazepin-4-yl)acetamido)ethyl)amino)-2-oxoethyl)phenyl)boronic Acid] | – | – | – | – | Degradation of BRD4, combination with CRBN ligand 8047 (BRD4 [1]): √ (A black check mark indicates efficacy of 30% to 70% or higher protein degradation); BRD4 degradation (BRD4 [2]; co-treated 1:1 with CRBN ligand 8047, HeLa, 10 μM each): causes degradation of BRD4
COc1ccc2c(c1)C(c1ccc(Cl)cc1)=N[C@@H](CC(=O)NCCCCNC(=O)c1ccc(O)c(O)c1)c1nnc(C)n1-2 [BRD-N5] | √ (A black check mark indicates efficacy of 30% to 70% or higher protein degradation) | there is no degradation of BRD4 | causes degradation of BRD4; also recorded: Degradation is noted | no evidence of BRD4 degradation | –
COc1ccc2c(c1)C(c1ccc(Cl)cc1)=N[C@@H](CC(=O)Nc1ccc(O)c(O)c1)c1nnc(C)n1-2 [BRD- N68] | √ (A black check mark indicates efficacy of 30% to 70% or higher protein degradation) | – | – | – | –
CCNC(=O)C[C@@H]1N=C(c2ccc(Cl)cc2)c2cc(OCCOCCOCCNC(=O)c3ccc(O)c(O)c3)ccc2-n2c(C)nnc21 [BRD- N40] | – | – | – | – | Degradation of BRD4, combination with VHL ligand 8297 (BRD4 [1]; Table 6, aromatic 1,2-diol BRD4 ligand + 8297): √ (A black check mark indicates efficacy of 30% to 70% or higher protein degradation)
CCNC(=O)C[C@@H]1N=C(c2ccc(OCc3ccc(B(O)O)cc3)cc2)c2cc(OC)ccc2-n2c(C)nnc21 [BRD- E54] | – | – | – | – | Degradation of BRD4, combination with VHL ligand 8305 (BRD4 [1]; Table 3, aryl-boronic acid BRD4 ligand + 8305): √ (A black check mark indicates efficacy of 30% to 70% or higher protein degradation)
COc1ccc2c(c1)C(c1ccc(Cl)cc1)=N[C@@H](CC(=O)NCCCCCNC(=O)c1ccc(B(O)O)cc1)c1nnc(C)n1-2 [BRD- E07] | – | – | – | – | Degradation of BRD4, combination with CRBN ligand 8066 (BRD4 [1]): √ (A black check mark indicates efficacy of 30% to 70% or higher protein degradation)
COc1ccc2c(c1)C(c1ccc(Cl)cc1)=N[C@@H](CC(=O)NCCNC(=O)Cc1cccc(B(O)O)c1)c1nnc(C)n1-2 [BRD- E38] | – | – | – | – | Degradation of BRD4, combination with CRBN ligand 8047 (BRD4 [1]): √ (A black check mark indicates efficacy of 30% to 70% or higher protein degradation)
COc1ccc2c(c1)C(c1ccc(Cl)cc1)=N[C@@H](CC(=O)NCCNC(=O)/C=C/c1cccc(B(O)O)c1)c1nnc(C)n1-2 [BRD-E30, (3-((E)-3-((2-(2-((4S)-6-(4-chlorophenyl)-8-methoxy-1-methyl-4H-benzo[f][1,2,4]triazolo[4,3-a][1,4]diazepin-4-yl)acetamido)ethyl)amino)-3-oxoprop-1-en-1-yl)phenyl)boronic acid] | – | – | – | – | Degradation of BRD4, combination with CRBN ligand 8047 (BRD4 [1]): √ (A black check mark indicates efficacy of 30% to 70% or higher protein degradation); Degradation of BRD4, combination with CRBN ligand 8066 (BRD4 [1]): √ (A black check mark indicates efficacy of 30% to 70% or higher protein degradation)
